Assay results as given in US6808884B2, “Methods and compositions for detecting polynucleotide duplex damage and errors” (California Institute of Technology, priority 2000, dated 2004).

Tests used:
[1] = tested on: DNA duplexes (SEQ ID NO:1 / SEQ ID NO:2) having base-pair mismatches; test: Photocleavage of 17mer DNA duplexes with varied X-Y base pair, 365 nm irradiation, PAGE analysis; assay type: biochemical; conditions: duplex 10 μM, complex 1 μM, pH 7.0, 13 min at 365 nm
Experimental: A set of DNA duplexes was prepared having the following sequence: 3′-[…]-5′(SEQ ID NO:1)
5′-[…]-3′(SEQ ID NO:2),
where X and Y were varied to provide A-T, G-C, and the following mismatches: C-C, C-A, T-T, A-A, T-C, T-G, G-A, and G-G. All oligonucleotides were prepared using standard phosphoramidite chemistry, and were purified by reverse phase HPLC. The oligonucleotides were 5′ end-labeled with γ-^32P ATP (Dupont-NEN) and T4 polynucleotide kinase (New England Biolabs).
Duplexes (10 μM) were incubated with Δ or Λ [Rh(bpy)2 (chrysi)]^3+(1 μM in 50 mM Tris, 20 mM NaOAc, 18 mM NaCl, pH 7.0) for 11 minutes, then irradiated for 13 min at 365 nm using an Oriel HgXe arc lamp. The products were analyzed by PAGE (20%, denaturing), imaged using a Molecular Dynamics Phosphorimager. […] Here, cleavage occurred to the 3′ side of the mismatch site. […] Unlike the other recognized mismatches, the cleavage 3′ to C-A results in two products having different gel mobility, possibly the result of chemically different polymer termini. The cleavage of A-A was also distinctive.

[2] = tested on: DNA duplexes with mismatch-sequence context combinations; test: DNA photocleavage with bases 5′ and 3′ of the mismatch site systematically changed; assay type: biochemical; conditions: flanking bases 5′ and 3′ of the mismatch systematically changed

Substance	photocleavage at A-A mismatch, at the A-A site itself [1]	photocleavage at A-A mismatch, base 3′ to the site [1]	photocleavage at C-A mismatch ([1]; at the mismatched C and the neighbouring base 3′)	photocleavage intensity at C-C mismatch ([1]; cleavage 3′ of the mismatch site)	photocleavage intensity at T-C mismatch ([1]; compared with C-C)	photocleavage intensity at T-T mismatch ([1]; compared with C-C)	mismatch-sequence context combinations at which photocleavage was observed (count) [2]	mismatch-sequence context combinations at which photocleavage was observed (share) [2] [%]	mismatch pairs cleaved among C-C, C-A, T-T, A-A, T-C, T-G, G-A, G-G [1]	photocleavage at A-A mismatch, relative to the other enantiomer [1]
Δ-[Rh(bpy)2 (chrysi)]Cl3 [Δ-[Rh(bpy)2 (chrysi)]^3+]	small amount of cleavage	strong cleavage	Strong cutting	strongest cleavage intensity	less intense cleavage	less intense cleavage	83 of 104	80	–	–
Λ[Rh(bpy)2 (chrysi)]Cl3 [Λ enantiomer]	–	–	–	–	–	–	–	–	A-A mismatch is the only pair cleaved	weaker cleavage than the Δ enantiomer
